# Values quoted from earlier work in paper PMC9762682, “Tocotrienols: Exciting Biological and Pharmacological Properties of Tocotrienols and Naturally Occurring Compounds, Part II” (Annals of clinical case reports, 2022).
# Experiments:
# B-Lymphocyte cells = test system: B-Lymphocyte cells; parameters: method as in PMID 29606130; value at effective dose: unit not given here;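 on IC50: anti-proliferation of cancer cells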
# [1] = test system: plasma total mRNAs gene expression; parameters: method as in PMID 30031388
# Pancreas cancer cells = test system: Pancreas cancer cells; parameters: method as in PMID 29606130
# [2] = hepatitis C patients, plasma total mRNAs, pre-dose vs post-dose
compound,measurement,setting,value
CC(C)=CCC/C(C)=C/CC/C(C)=C/CC[C@]1(C)CCc2cc(O)cc(C)c2O1 [δ-Tocotrienol],IC50,B-Lymphocyte cells,10 µM
same,effective dose,B-Lymphocyte cells,20 µM
same,percentage of control at IC50 dose,B-Lymphocyte cells,55%
same,percentage of control at effective dose,B-Lymphocyte cells,21%
same,value at effective dose,B-Lymphocyte cells,2.7 ± 1.5
same,side effects in hepatitis C patients,[1]; chronic hepatitis C patients,without any side-effect
same,Expr. Fold Change: AKR1D1,[1]; [2],14.056
same,Expr. Fold Change: APOBEC3A,[1]; [2],−8.163
same,Expr. Fold Change: ATF4,[1]; [2],−9.515
same,Expr. Fold Change: ATG3,[1]; [2],−8.376
same,Expr. Fold Change: ATP1A1,[1]; [2],−8.014
same,Expr. Fold Change: CERS3,[1]; [2],19.082
same,Expr. Fold Change: COX14,[1]; [2],−9.447
same,Expr. Fold Change: CREB1,[1]; [2],−8.452
same,Expr. Fold Change: CXCR2,[1]; [2],−8.208
same,Expr. Fold Change: CYB5R4,[1]; [2],−8.367
same,Expr. Fold Change: CYP2R1,[1]; [2],−8.682
same,Expr. Fold Change: FRS2,[1]; [2],−9.962
same,Expr. Fold Change: GPR65,[1]; [2],−9.054
same,Expr. Fold Change: GPS2,[1]; [2],−9.56
same,Expr. Fold Change: GTPBP8,[1]; [2],−10.19
same,Expr. Fold Change: GYS1,[1]; [2],−9.027
same,Expr. Fold Change: HBG1,[1]; [2],17.945
same,Expr. Fold Change: HBG2,[1]; [2],11.413
same,Expr. Fold Change: HHIPL2,[1]; [2],28.710
same,Expr. Fold Change: HIST1H2AD,[1]; [2],1804955.068
same,Expr. Fold Change: HSP90AB1,[1]; [2],−8.049
same,Expr. Fold Change: HSPA14,[1]; [2],−10.978
same,Expr. Fold Change: ID2,[1]; [2],−14.133
same,Expr. Fold Change: IFNGR2,[1]; [2],−13.844
same,Expr. Fold Change: IGF2R,[1]; [2],−8.68
same,Expr. Fold Change: IGSF6,[1]; [2],−8.712
same,Expr. Fold Change: IL2RG,[1]; [2],−16.787
same,Expr. Fold Change: IL16,[1]; [2],−8.239
same,Expr. Fold Change: IL27RA,[1]; [2],−12.004
same,Expr. Fold Change: ILF2,[1]; [2],−9.105
same,Expr. Fold Change: IRF2,[1]; [2],−22.655
same,Expr. Fold Change: KLRC4-KLRK1/KLRK1,[1]; [2],−1565687.642
same,Expr. Fold Change: MKX,[1]; [2],9.573
same,Expr. Fold Change: MT-TQ,[1]; [2],14.252
same,Expr. Fold Change: NDUFA11,[1]; [2],−8.686
same,Expr. Fold Change: NDUFB1,[1]; [2],−8.566
same,Expr. Fold Change: NDUFB9,[1]; [2],−8.354
same,Expr. Fold Change: NFIL3,[1]; [2],−9.568
same,Expr. Fold Change: OSBPL11,[1]; [2],−9.201
same,Expr. Fold Change: P4HA3,[1]; [2],8.686
same,Expr. Fold Change: PDE3B,[1]; [2],−8.568
same,Expr. Fold Change: PECAM1,[1]; [2],−9.552
same,Expr. Fold Change: PIAS1,[1]; [2],−9.326
same,Expr. Fold Change: PIBF1,[1]; [2],−9.876
same,Expr. Fold Change: PRPF18,[1]; [2],−8.777
same,Expr. Fold Change: PSMA5,[1]; [2],−9.31
same,Expr. Fold Change: PSMB4,[1]; [2],−10.119
same,Expr. Fold Change: PSMB8,[1]; [2],−9.709
same,Expr. Fold Change: PSMC3,[1]; [2],−8.346
same,Expr. Fold Change: PTGS2,[1]; [2],−25.841
same,Expr. Fold Change: RAP2C,[1]; [2],−9.792
same,Expr. Fold Change: RPP38,[1]; [2],24.946
same,Expr. Fold Change: RPS26,[1]; [2],−9.456
same,Expr. Fold Change: SCP2,[1]; [2],−13.672
same,Expr. Fold Change: SERP1,[1]; [2],−8.872
same,Expr. Fold Change: SFPQ,[1]; [2],−9.469
same,Expr. Fold Change: TLR8,[1]; [2],−11.975
same,Expr. Fold Change: TNFAIP8,[1]; [2],−10.974
same,Expr. Fold Change: TNFRSF1B,[1]; [2],−8.746
same,Expr. Fold Change: TRAF7,[1]; [2],−9.341
same,Expr. Fold Change: TSPAN15,[1]; [2],11.523
same,Expr. Fold Change: TUSC2,[1]; [2],−15.922
same,Expr. Fold Change: UBA52,[1]; [2],−10.176
same,Expr. Fold Change: UBE2J1,[1]; [2],−8.874
same,Expr. Fold Change: UBE4A,[1]; [2],−10.189
same,Expr. Fold Change: UBP1,[1]; [2],−9.718
same,Expr. Fold Change: USP15,[1]; [2],−10.16
same,Expr. Fold Change: USP19,[1]; [2],−10.713
same,Expr. Fold Change: USP25,[1]; [2],−9.911
same,Expr. Fold Change: VEGFA,[1]; [2],−8.933
same,Expr. Fold Change: mir-140,[1]; [2],−5668.259
same,Expr. Fold Change: mir-877,[1]; [2],−4497.07
same,Expr. Fold Change: mir-1250,[1]; [2],−4755.79
same,"expression of pro-inflammatory cytokines (TNF-α, VCAM1, proteasome subunits)",[1]; plasma total mRNAs after δ-tocotrienol feeding to hepatitis C patients,significant inhibition
same,expression of ICAM1 and IFN-γ,"[1]; plasma total mRNAs after δ-tocotrienol feeding to hepatitis C patients, post-treatment",induction
same,IC50,Pancreas cancer cells,10 µM
same,percentage of control at IC50 dose,Pancreas cancer cells,36%
same,effective dose,Pancreas cancer cells; 48 h,20 µM
same,percentage of control at effective dose,Pancreas cancer cells; 48 h,5%
